Assay results published in patent US10233180B2, “Substituted nitrogen-containing heterocyclic derivatives, pharmaceutical compositions comprising the same and applications of antitumor thereof” (ZHEJIANG UNIVERSITY, priority 2014, dated 2019).
pIC50: −log10 of the molar value. Like-named read-outs stand apart in the source and are kept apart here.

Assays:
Akt1 = biological target: T1, Akt1 (Homo sapiens, UniProt P31749); experiment: AKT1/PKBα KinEASE FP Fluorescein Green Assay (fluorescence polarization kinase kit); type: biochemical; conditions: 1 h reaction, read-out: Inhibitory activities against Akt1 (IC50)
T1 construct: purchased 32-021
T1 sequence (P31749 whole entry): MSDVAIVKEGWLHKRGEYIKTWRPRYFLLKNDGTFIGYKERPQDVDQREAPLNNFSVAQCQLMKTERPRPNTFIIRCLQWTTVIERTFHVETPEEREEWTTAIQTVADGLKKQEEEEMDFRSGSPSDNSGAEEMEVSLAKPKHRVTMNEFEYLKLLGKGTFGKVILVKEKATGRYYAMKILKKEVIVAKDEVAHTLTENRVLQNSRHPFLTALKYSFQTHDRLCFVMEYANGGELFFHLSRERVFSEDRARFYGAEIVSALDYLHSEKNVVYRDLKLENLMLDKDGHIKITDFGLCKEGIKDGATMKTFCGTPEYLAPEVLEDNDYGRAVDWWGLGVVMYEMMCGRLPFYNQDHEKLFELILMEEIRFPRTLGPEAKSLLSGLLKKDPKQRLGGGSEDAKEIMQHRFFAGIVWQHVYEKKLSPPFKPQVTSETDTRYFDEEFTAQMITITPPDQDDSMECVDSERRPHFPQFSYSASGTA
Procedure, shortened: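 FP competition kinase assay: compounds (50 μM stock) with STK Substrate 3 and ATP, 1 h reaction at room temperature; stopped with stop/antibody mix, 4 h at room temperature, then polarization read. Inhibition derived from polarization values; IC50 calculated; triplicate wells.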

[1] = tested on: human colon cancer cell strain HCT-116; experiment: MTT assay, inhibition of tumor cell growth in vitro, 72 h; type: cell-based; conditions: HCT-116, MTT, read-out: Antitumor proliferative activities of tumor cell (IC50, μM) HCT-116 (converted)
Procedure, shortened: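 Cells in RPMI 1640 with FBS, 4000 cells/well, exposed 72 h at 37 °C, 5% CO2 to final 50, 10, 2, 0.4 and 0.08 μM; 1% DMSO blank. MTT OD gives % inhibition versus control; IC50 derived by Bliss method.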

[2] = tested on: Human ovarian cancer cell strain OVCAR-8; experiment: as above; type: cell-based; conditions: OVCAR-8, MTT, read-out: Antitumor proliferative activities of tumor cell (IC50, μM) OVCAR-8
Procedure, shortened: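 OVCAR8 cells in RPMI 1640 plus FBS were seeded at 4000 cells/well and exposed for 72 h at 37 °C to compound at 50, 10, 2, 0.4 and 0.08 μM final, with 1% DMSO as blank. Inhibition was calculated from OD relative to control, and IC50 was derived by the Bliss method.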

| Compound | pIC50 (Akt1) | IC50 ([1]; Homo sapiens) [µM] | IC50 ([2]; Homo sapiens) [µM] | IC50 [1] [µM] | IC50 [2] [µM] |
| --- | --- | --- | --- | --- | --- |
| Cn1ncc(Cl)c1-c1cc(C(=O)N[C@H]2CNCC[C@@H]2c2ccccc2)oc1Cl (racemic) [Compound 29, 5-chloro-4-(4-chloro-1-methyl-1H-pyrazol-5-yl)-N-(3,4-trans-4-phenylpiperidin-3-yl)furan-2-formamide] | 7.21 | 8.67 | 1.12 | – | – |
| Cn1ncc(Cl)c1-c1ccc(C(=O)N[C@@H]2CNCC[C@H]2c2ccc(F)c(F)c2)c(-c2csc(Cl)c2)c1 [Compound 90, 4-(4-chloro-1-methyl-1H-pyrazol-5-yl)-2-(5-chlorothiophene-3-yl)-N-((3S, 4S)-4-(3,4-difluorophenyl)piperidin-3-yl)benzamide] | 7.85 | 0.69 | 1.83 | – | – |
| Cn1ncc(Cl)c1-c1ccc(C(=O)N[C@@H]2CNCC[C@H]2c2ccc(Cl)cc2)cc1C#N [Compound 76, 4-(4-chloro-1-methyl-1H-pyrazol-5-yl)-N-((3S,4S)-4-(4-chlorophenyl)piperidin-3-yl)-3-cyanobenzamide] | 7.68 | 1.56 | 2.54 | – | – |
| CNC(=O)CC1C[C@@H](c2ccc(F)c(F)c2)[C@H](NC(=O)c2cc(-c3c(Cl)cnn3C)c(Cl)s2)CN1 (stereo partly drawn) [Compound 104, 5-chloro-4-(4-chloro-1-methyl-1H-pyrazol-5-yl)-N-((3S,4S)-4-(3,4-difluorophenyl)-6-(2-(methylamido)-2-oxoethyl)piperidin-3-yl)thiophene-2-formamide] | 8.52 | 2.43 | 1.71 | – | – |
| C=Cc1cnn(C)c1-c1ccc(C(=O)N[C@@H]2CNCC[C@H]2c2cccc(F)c2)s1 [Compound 144, N-((3S, 4S)-4-(3-fluorophenyl)piperidin-3-yl)-5-(1-methyl-4-vinyl-1H-pyrazol-5-yl)thiophene-2-formamide] | 8.70 | 3.68 | 3.48 | – | – |
| Cn1nccc1-c1coc(C(=O)N[C@H]2CNCC[C@@H]2c2ccccc2)c1 (racemic) [Compound 1, 4-(1-methyl-1H-pyrazol-5-yl)-N-(3,4-trans-4-phenylpiperidin-3-yl)furan-2-formamide] | 7.14 | 3.98 | 1.34 | – | – |
| Cn1ncc(Cl)c1-c1cnc(C(=O)N[C@@H]2CNCC[C@H]2c2ccc(Cl)c(C(F)(F)F)c2)cc1Cl [Compound 95, 4-chloro-5-(4-chloro-1-methyl-1H-pyrazol-5-yl)-N-((3S,4S)-4-(4-chloro-3-(trifluoromethyl)phenyl)piperidin-3-yl)picolinamide] | 7.77 | 0.95 | 0.98 | – | – |
| Cn1ncc(Cl)c1-c1cc(C(=O)N[C@@H]2CNC(CC(=O)NC3CCC3)C[C@H]2c2ccc(Cl)c(Cl)c2)oc1Cl (stereo partly drawn) [Compound 120, 5-chloro-4-(4-chloro-1-methyl-1H-pyrazol-5-yl)-N-((3S,4S)-6-(2-(cyclobutylamido)-2-oxoethyl)-4-(3,4-dichlorophenyl)piperidin-3-yl)furan-2-formamide] | 8.52 | 0.44 | 0.45 | – | – |
| Cc1c(C(=O)N[C@H]2CNCC[C@@H]2C2CCCC(Cl)C2)sc(Cl)c1-c1ncnn1C (stereo partly drawn) [Compound 18] | 7.74 | 1.83 | 5.69 | – | – |
| CCC[C@H]1CNC[C@@H](NC(=O)c2ccc(-c3c(Cl)cnn3C)s2)[C@@H]1c1cccc(F)c1 [Compound 151, 5-(4-chloro-1-methyl-1H-pyrazol-5-yl)-N-((3S, 4S, 5R)-4-(3-fluorophenyl)-5-propylpiperidin-3-yl)thiophene-2-formamide] | 9.00 | 2.5 | 1.52 | – | – |
| CNC(=O)CC1C[C@@H](c2ccc(F)c(F)c2)[C@H](NC(=O)c2ccc(-c3c(Cl)cnn3C)cc2)CN1 (stereo partly drawn) [Compound 98] | 8.40 | 0.92 | 1.82 | – | – |
| Cn1ncc(Cl)c1-c1cc(C(=O)N[C@@H]2CNC(CCN3CCCC3)C[C@H]2c2ccc(Cl)c(Cl)c2)oc1Cl (stereo partly drawn) [Compound 110, 5-chloro-4-(4-chloro-1-methyl-1H-pyrazol-5-yl)-N-((3S,4S)-4-(3,4-dichlorophenyl)-6-(2-(pyrrolidin-1-yl)ethyl)piperidin-3-yl)furan-2-formamide] | 7.96 | 0.89 | 1.21 | – | – |
| Cn1ncc(Cl)c1-c1cc(C(=O)N[C@@H]2CNC(CCNS(C)(=O)=O)C[C@H]2c2ccc(F)c(F)c2)oc1Cl (stereo partly drawn) [Compound 127, 5-chloro-4-(4-chloro-1-methyl-1H-pyrazol-5-yl)-N-((3S,4S)-4-(3,4-difluorophenyl)-6-(2-(methylsulfonamido)ethyl)piperidin-3-yl)furan-2-formamide] | 9.52 | 0.89 | 0.67 | – | – |
| 5-ethyl-1-methyl-4-(4-ethyl-1-methyl-1H-pyrazol-5-yl)-N-(3,4-trans-4-(piperidin-3-yl)piperidin-3-yl)-1H-pyrrole-2-formamide [Compound 17] | 7.55 | – | – | 3.4 | 1.43 |
| CCC[C@H]1CNC[C@@H](NC(=O)c2cc(-c3c(Cl)cnn3C)c(Cl)s2)[C@@H]1c1cccc(F)c1 [Compound 134, 5-chloro-4-(4-chloro-1-methyl-1H-pyrazol-5-yl)-N-((3S,4S,5R)-4-(3-fluorophenyl)-5-propylpiperidin-3-yl)thiophene-2-formamide] | 9.52 | 0.69 | 0.53 | – | – |
| Cn1ncc(Cl)c1-c1cc(C(=O)N[C@@H]2CNC(CC(=O)O)C[C@H]2c2ccc(Cl)c(Cl)c2)oc1Cl (stereo partly drawn) [Compound 116, 2-((4S,5S)-5-(5-chloro-4-(4-chloro-1-methyl-1H-pyrazol-5-yl)furan-2-formamide)-4-(3,4-dichlorophenyl)piperidin-2-yl)acetic acid] | 9.00 | 5.01 | 3.68 | – | – |
| CCCc1cc(C(=O)N[C@H]2CNCC[C@@H]2c2cc(OC)cc(OC)c2)ccc1-c1c(Br)cnn1C (racemic) [Compound 54, 3-n-propyl-4-(4-bromo-1-methyl-1H-pyrazol-5-yl)-N-(3,4-trans-4-(3,5-dimethoxyphenyl)piperidin-3-yl)phenyl formamide] | 6.17 | 3.14 | 13.3 | – | – |
| Cn1ncc(Cl)c1-c1coc(C(=O)N[C@H]2CNCC[C@@H]2c2ccc(F)c(F)c2)c1 (racemic) [Compound 25, 4-(4-chloro-1-methyl-1H-pyrazol-5-yl)-N-(3,4-trans-4-(3,4-difluorophenyl)piperidin-3-yl)furan-2-formamide] | 6.62 | 3.19 | 21.4 | – | – |
| CCc1cnn(C)c1-c1cc(C(=O)N[C@H]2CNCC[C@@H]2c2ccc(Cl)cc2)nc(C)n1 (racemic) [Compound 47, 2-methyl-6-(1-methyl-4-ethyl-1H-pyrazol-5-yl)-N-(3,4-trans-4-(4-chlorophenyl)piperidin-3-yl)pyrimidine-4-formamide] | 6.67 | 3.11 | 5.57 | – | – |
| Cn1ncc(-c2ccccc2)c1-c1ccc(C(=O)N[C@@H]2CNCC[C@H]2c2ccc(F)c(F)c2)s1 [Compound 148, N-((3S, 4S)-4-(3,4-difluorophenyl)piperidin-3-yl)-5-(1-methyl-4-phenyl-1H-pyrazol-5-yl)thiophene-2-formamide] | 8.30 | 1.23 | 0.67 | – | – |
| C[C@H]1CNC[C@@H](NC(=O)c2cc(-c3c(Cl)cnn3C)c(Cl)o2)[C@@H]1c1cccc(F)c1 [Compound 136, 5-chloro-4-(4-chloro-1-methyl-1H-pyrazol-5-yl)-N-((3S, 4S, 5R)-4-(3-fluorophenyl)-5-methylpiperidin-3-yl)furan-2-formamide] | 8.70 | 2.81 | 3.68 | – | – |
| Cc1cnn(C)c1-c1cnc(C(=O)N[C@H]2CNC[C@@H]2c2ccc(F)c(F)c2)cc1F (racemic) [Compound 70, 4-fluoro-5-(1,4-dimethyl-1H-pyrazol-5-yl)-N-(3,4-trans-4-(3,4-difluorophenyl)pyrrolidin-3-yl)pyridinyl-2-formamide] | 7.06 | 10.3 | 2.69 | – | – |
| Cn1ncc(Cl)c1-c1ccc(C(=O)N[C@@H]2CNC(CCO)C[C@H]2c2ccc(F)c(F)c2)cc1 (stereo partly drawn) [Compound 100] | 8.05 | 0.42 | 1.12 | – | – |
| CCC[C@H]1CNC[C@@H](NC(=O)c2cc(-c3c(Cl)cnn3C)c(Cl)o2)[C@@H]1c1cccc(F)c1 [Compound 137, 5-chloro-4-(4-chloro-1-methyl-1H-pyrazol-5-yl)-N-((3S, 4S, 5R)-4-(3-fluorophenyl)-5-propylpiperidin-3-yl)furan-2-formamide] | 9.00 | 0.43 | 1.88 | – | – |
| Cn1ncc(Cl)c1-c1csc(C(=O)N[C@H]2CNCC[C@@H]2c2ccc(F)c(F)c2)c1 (racemic) [Compound 36, 4-(4-chloro-1-methyl-1H-pyrazol-5-yl)-N-(3,4-trans-4-(3,4-difluorophenyl)piperidin-3-yl)thiophene-2-formamide] | 6.98 | 3.28 | 3.38 | – | – |
